Experimental data as given in patent publication US20250333418A1, “PURINE COMPOUNDS, COMPOSITIONS COMPRISING THEM AND USES THEREOF” (Novo Nordisk A/S, priority 2022, published 2025).

Columns and labels:
human CB1 receptor [1] = molecular target: T1, human CB1 receptor (Homo sapiens, UniProt P21554); test: bioSensAll β-arrestin2 plasma membrane translocation (+GRK2) BRET biosensor assay in HEK293 cells transfected with hCB1; test compound added before EC75-80 of agonist CP55,940 (100 nM); format: cell-based; details: βArrestin2 (+GRK2) BRET biosensor, vs CP55,940 100 nM (EC75-80), read-out: CB1 wt βarr2 IC50
T1 construct: expressed in transfected cells; host or cells: HEK293
Method in brief: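 HEK293 cells co-transfected with hCB1 and β-arrestin2 PM-translocation BRET biosensor (+GRK2); 48 h post-transfection in HBSS, test compound (0–600 nM, 12 points) added 3–5 min before CP55,940 at 100 nM (EC75-80). Overnight incubation at 37 °C; BRET (515/400 nm) read after 2 µM e-coelenterazine Prolume Purple, standardized to controls.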

human CB1 receptor [2] = molecular target: T1, human CB1 receptor; test: bioSensAll GAPL-Gi2 BRET biosensor assay in HEK293 cells transfected with hCB1; test compound added before EC75-80 of agonist CP55,940 (0.1 nM); format: cell-based; details: vs CP55,940 0.1 nM (EC75-80), read-out: CB1 wt Gi2 IC50
Method in brief: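 Test compounds at 12 doses up to 600 nM preceded a 0.1 nM CP55,940 challenge in hCB1/GAPL-Gi2 HEK293 cells. After overnight 37° C incubation, methoxy e-coelenterazine (2 µM final) was added and the 515/400 nm BRET ratio normalized to positive and negative controls.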

T1 sequence (P21554 whole entry): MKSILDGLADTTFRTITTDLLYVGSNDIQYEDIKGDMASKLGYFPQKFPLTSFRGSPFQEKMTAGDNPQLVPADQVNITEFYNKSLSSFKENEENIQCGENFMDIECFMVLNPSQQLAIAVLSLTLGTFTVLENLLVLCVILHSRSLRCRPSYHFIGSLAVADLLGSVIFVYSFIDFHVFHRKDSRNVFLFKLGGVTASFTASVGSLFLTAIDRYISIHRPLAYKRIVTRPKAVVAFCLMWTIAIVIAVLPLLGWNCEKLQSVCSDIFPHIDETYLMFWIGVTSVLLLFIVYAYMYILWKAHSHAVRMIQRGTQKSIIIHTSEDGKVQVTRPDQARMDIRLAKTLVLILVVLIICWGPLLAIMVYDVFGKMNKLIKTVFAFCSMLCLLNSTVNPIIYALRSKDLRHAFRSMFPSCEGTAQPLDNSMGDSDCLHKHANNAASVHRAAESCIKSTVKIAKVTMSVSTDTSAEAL

| SMILES | IC50 (human CB1 receptor [1]) [nM] | IC50 (human CB1 receptor [2]) [nM] |
| --- | --- | --- |
| CC(C)(O)COc1nc(N2CC(C)(O)C2)c2nc(-c3ccc(C#N)nc3)n(-c3ccc(Cl)cc3)c2n1 [Compound 112, 5-[9-(4-chlorophenyl)-6-(3-hydroxy-3-methyl-azetidin-1-yl)-2-(2-hydroxy-2-methyl-propoxy)purin-8-yl]pyridine-2-carbonitrile] | 105 | 88.3 |
| CC(C)(O)COc1nc(N2CC(C)(C#N)C2)c2nc(-c3ccc(C#N)nc3)n(-c3ccc(Cl)cc3)c2n1 [Compound 113, 5-[9-(4-chlorophenyl)-6-(3-cyano-3-methyl-azetidin-1-yl)-2-(2-hydroxy-2-methyl-propoxy)purin-8-yl]pyridine-2-carbonitrile] | 15.5 | 7.11 |
| COC1(C)CN(c2nc(OCC(C)(C)O)nc3c2nc(-c2ccc(C#N)nc2)n3-c2ccc(Cl)cc2)C1 [Compound 114, 5-[9-(4-chlorophenyl)-2-(2-hydroxy-2-methyl-propoxy)-6-(3-methoxy-3-methyl-azetidin-1-yl)purin-8-yl]pyridine-2-carbonitrile] | 14.1 | 3.87 |
| Cc1cnc(-c2nc3c(N4CCC(C)(C(N)=O)CC4)nc(N(C)CCO)nc3n2-c2ccc(Cl)cc2)n1C [Compound 115, 1-(9-(4-chlorophenyl)-8-(1,5-dimethyl-1H-imidazol-2-yl)-2-((2-hydroxyethyl)(methyl)amino)-9H-purin-6-yl)-4-methylpiperidine-4-carboxamide] | 93.6 | 17.8 |
| CN(C)c1ccc(-c2nc3c(N4CCC(C)(C(N)=O)CC4)nc(OCC(C)(C)O)nc3n2-c2ccc(Cl)cc2)cn1 [Compound 116, 1-[9-(4-chlorophenyl)-8-[6-(dimethylamino)-3-pyridyl]-2-(2-hydroxy-2-methyl-propoxy)purin-6-yl]-4-methyl-piperidine-4-carboxamide] | > 5000 | 68.8 |
| CN1CCC[C@H]1COc1nc(N2CCC(C)(C(N)=O)CC2)c2nc(-c3ccccc3Cl)n(-c3ccc(Cl)cc3)c2n1 [Compound 117, 1-[8-(2-chlorophenyl)-9-(4-chlorophenyl)-2-[[(2S)-1-methylpyrrolidin-2-yl]methoxy]purin-6-yl]-4-methyl-piperidine-4-carboxamide] | 3.76 | 1.64 |
| CCOC1(C(N)=O)CCN(c2nc(OCC(C)(C)O)nc3c2nc(-c2ccc(C#N)nc2)n3-c2ccc(Cl)cc2)CC1 [Compound 120, 1-[9-(4-chlorophenyl)-8-(6-cyano-3-pyridyl)-2-(2-hydroxy-2-methyl-propoxy)purin-6-yl]-4-ethoxy-piperidine-4-carboxamide] | 25.4 | 16.9 |
| CC(C)(O)COc1nc(N2CCC(C)(C(N)=O)CC2)c2nc(-c3ccncc3Cl)n(-c3ccc(Cl)cc3)c2n1 [Compound 121, 1-[9-(4-chlorophenyl)-8-(3-chloro-4-pyridyl)-2-(2-hydroxy-2-methyl-propoxy)purin-6-yl]-4-methyl-piperidine-4-carboxamide] | 17 | 2.6 |
| CC(C)(O)COc1nc(-c2ccc(C(F)(F)F)nc2)c2nc(-c3ccccc3Cl)n(-c3ccc(Cl)cc3)c2n1 [Compound 123] | 2.04 | 0.876 |
| CN(CC(C)(C)O)c1nc(-c2ccc(C(F)(F)F)nc2)c2nc(-c3ccccc3Cl)n(-c3ccc(Cl)cc3)c2n1 [Compound 124] | 12.1 | 3.23 |
| CN(CC1COC1)c1nc(-c2ccc(C(F)(F)F)nc2)c2nc(-c3ccccc3Cl)n(-c3ccc(Cl)cc3)c2n1 [Compound 125] | 16.4 | 4.99 |
| CN(CC1(C)COC1)c1nc(-c2ccc(C(F)(F)F)nc2)c2nc(-c3ccccc3Cl)n(-c3ccc(Cl)cc3)c2n1 [Compound 126] | 20.7 | 8.07 |
| Cc1nc(N2CCC(C)(C(N)=O)CC2)c2nc(-c3ccccc3Cl)n(-c3ccc(Cl)cc3)c2n1 [Compound 127] | 40.9 | 9.42 |
| CN(CC(C)(C)O)c1nc(N2CC(C(N)=O)C2)c2nc(-c3ccccc3Cl)n(-c3ccc(Cl)cc3)c2n1 [Compound 128] | 39.5 | 9.52 |
| CC1(C(N)=O)CCN(c2nc(N3CCC[C@H]3CO)nc3c2nc(-c2ccc(C#N)nc2)n3-c2ccc(Cl)cc2)CC1 [Compound 130, 1-[9-(4-chlorophenyl)-8-(6-cyano-3-pyridyl)-2-[(2S)-2-(hydroxymethyl)pyrrolidin-1-yl]purin-6-yl]-4-methyl-piperidine-4-carboxamide] | 1.2 | 0.592 |
| CC1(C(N)=O)CCN(c2nc(N3CC[C@@H](O)C3)nc3c2nc(-c2ccc(C#N)nc2)n3-c2ccc(Cl)cc2)CC1 [Compound 131, 1-[9-(4-chlorophenyl)-8-(6-cyano-3-pyridyl)-2-[(3R)-3-hydroxypyrrolidin-1-yl]purin-6-yl]-4-methyl-piperidine-4-carboxamide] | 2.95 | 0.713 |
| CCOC1(C(N)=O)CCN(c2nc(NCC(C)(C)O)nc3c2nc(-c2ccc(C#N)nc2)n3-c2ccc(Cl)cc2)CC1 [Compound 132, 1-[9-(4-chlorophenyl)-8-(6-cyano-3-pyridyl)-2-[(2-hydroxy-2-methyl-propyl)amino]purin-6-yl]-4-ethoxy-piperidine-4-carboxamide] | > 5000 | 17.8 |
| CCOC1(C(N)=O)CCN(c2nc(N3CCC[C@H]3CO)nc3c2nc(-c2ccc(C#N)nc2)n3-c2ccc(Cl)cc2)CC1 [Compound 133, 1-[9-(4-chlorophenyl)-8-(6-cyano-3-pyridyl)-2-[(2S)-2-(hydroxymethyl)pyrrolidin-1-yl]purin-6-yl]-4-ethoxy-piperidine-4-carboxamide] | 1.8 | 0.673 |
| CC(C)OC1(C(N)=O)CCN(c2nc(OCC(C)(C)O)nc3c2nc(-c2ccc(C#N)nc2)n3-c2ccc(Cl)cc2)CC1 [Compound 135] | 11.7 | 2.3 |
| CC(C)OC1(C(N)=O)CCN(c2nc(N3CCC[C@H]3CO)nc3c2nc(-c2ccc(C#N)nc2)n3-c2ccc(Cl)cc2)CC1 [Compound 136, 1-[9-(4-chlorophenyl)-8-(6-cyano-3-pyridyl)-2-[(2S)-2-(hydroxymethyl)pyrrolidin-1-yl]purin-6-yl]-4-isopropoxy-piperidine-4-carboxamide] | 1.75 | 0.848 |
| CC(C)(O)COc1nc(N2CC(C)(C(N)=O)C2)c2nc(-c3ccc(C#N)nc3)n(-c3ccc(Cl)cc3)c2n1 [Compound 138] | > 5000 | 34.1 |
| CCOC1(C(N)=O)CN(c2nc(OCC(C)(C)O)nc3c2nc(-c2ccc(C#N)nc2)n3-c2ccc(Cl)cc2)C1 [Compound 139, 1-[9-(4-chlorophenyl)-8-(6-cyano-3-pyridyl)-2-(2-hydroxy-2-methyl-propoxy)purin-6-yl]-3-ethoxy-azetidine-3-carboxamide] | 58.8 | 7.55 |
| N#Cc1ccc(-c2nc3c(N4CC(C(N)=O)C4)nc(N4CCC[C@H]4CO)nc3n2-c2ccc(Cl)cc2)cn1 [Compound 140] | 8.69 | 1.22 |
| CCNC1(C(N)=O)CCN(c2nc(NCCO)nc3c2nc(-c2ccccc2Cl)n3-c2ccc(Cl)cc2)CC1 [Compound 141] | 2.28 | 0.982 |
| CCNC1(C(N)=O)CCN(c2nc(OCCO)nc3c2nc(-c2ccccc2Cl)n3-c2ccc(Cl)cc2)CC1 [Compound 142] | 2.6 | 0.892 |
| CCNC1(C(N)=O)CCN(c2nc(N3CCC[C@H]3CO)nc3c2nc(-c2ccccc2Cl)n3-c2ccc(Cl)cc2)CC1 [Compound 143] | 1.59 | 0.837 |
